Key:
Assay in all cases: cells
Parameters in all cases: species or system panel of human cancer cell lines; Eurofins OncoPanel proliferation; nuclei count by high-content fluorescence imaging, 10-point dose response
[1] = test system: 647-V; conditions: Homo sapiens, 647-V, 72 h, cell count, 3 days
Method in brief: (§1)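 Cells in RPMI 1640/10% FBS or special medium received compound the day after seeding, with a time-zero plate; 3-day incubation at 37°C, 5% CO2. Nuclei imaged by fluorescence microscopy; 10 half-log doses from 100 μM, 0.1% DMSO. EC50, IC50, GI50 and activity area (0–10) from curve fits.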

[2] = test system: A-673; conditions: Homo sapiens, A673, 72 h, cell count, 3 days
Method in brief: as §1

[3] = test system: BM-1604; conditions: BM-1604, 72 h, cell count, 3 days
Method in brief: as §1

[4] = test system: CA46; conditions: Homo sapiens, CA46, 72 h, cell count, 3 days
Method in brief: as §1

[5] = test system: CCF-STTG1; conditions: Homo sapiens, CCF-STTG1, 72 h, cell count, 3 days
Method in brief: as §1

[6] = test system: Caki-2; conditions: Homo sapiens, CAKI-2, 72 h, cell count, 3 days
Method in brief: as §1

[7] = test system: Cal 27; conditions: Homo sapiens, CAL-27, 72 h, cell count, 3 days
Method in brief: as §1

[8] = test system: HCT-116; conditions: Homo sapiens, HCT-116, 72 h, cell count, 3 days
Method in brief: as §1

[9] = test system: Hs 695T; conditions: Homo sapiens, Hs 695T, 72 h, cell count, 3 days
Method in brief: as §1

[10] = test system: Hs 852.T; conditions: 72 h, cell count, 3 days
Method in brief: as §1

[11] = test system: Hs 888.Sk; conditions: 72 h, cell count, 3 days
Method in brief: as §1

[12] = test system: HuTu 80; conditions: Homo sapiens, HuTu80, 72 h, cell count, 3 days
Method in brief: as §1

[13] = test system: SU-DHL-4; conditions: Homo sapiens, SU-DHL-4, 72 h, cell count, 3 days
Method in brief: as §1

[14] = test system: U266B1; conditions: 72 h, cell count, 3 days
Method in brief: as §1

[15] = 50% of maximum possible response

C[C@@H]1CC(=O)NN=C1c1ccc(NN=C(C#N)C#N)cc1 [levosimendan]
IC50 [1, 15]: 13.7 µM
GI50 ([1]; corrected for time zero): 8.64 µM
EC50 ([1]; curve inflection point): 13.7 µM
IC50 [2, 15]: 57.6 µM
GI50 ([2]; corrected for time zero): 44 µM
EC50 ([2]; curve inflection point): 57.6 µM
IC50 [3, 15]: 12.6 µM
GI50 ([3]; corrected for time zero): 7.44 µM
EC50 ([3]; curve inflection point): 12.6 µM
IC50 [4, 15]: 13.2 µM
GI50 ([4]; corrected for time zero): 11 µM
EC50 ([4]; curve inflection point): 13.2 µM
IC50 [5, 15]: > 100 µM
GI50 ([5]; corrected for time zero): > 100 µM
EC50 ([5]; curve inflection point): > 100 µM
IC50 [6, 15]: > 100 µM
GI50 ([6]; corrected for time zero): > 100 µM
EC50 ([6]; curve inflection point): > 100 µM
IC50 [7, 15]: 14.9 µM
GI50 ([7]; corrected for time zero): 13.2 µM
EC50 ([7]; curve inflection point): 14.5 µM
IC50 [8, 15]: 8.39 µM
GI50 ([8]; corrected for time zero): 8.1 µM
EC50 ([8]; curve inflection point): 8.01 µM
IC50 [9, 15]: 44.9 µM
GI50 ([9]; corrected for time zero): 15.2 µM
EC50 ([9]; curve inflection point): 26.7 µM
IC50 [10, 15]: 82.2 µM
GI50 ([10]; corrected for time zero): 25 µM
EC50 ([10]; curve inflection point): 82.2 µM
IC50 [11, 15]: > 100 µM
GI50 ([11]; corrected for time zero): 47.6 µM
EC50 ([11]; curve inflection point): > 100 µM
IC50 [12, 15]: 16 µM
GI50 ([12]; corrected for time zero): 14.2 µM
EC50 ([12]; curve inflection point): 16 µM
IC50 [13, 15]: 4.77 µM
GI50 ([13]; corrected for time zero): 3.31 µM
EC50 ([13]; curve inflection point): 944 nM
IC50 [14, 15]: 95.7 µM
GI50 ([14]; corrected for time zero): 46.2 µM
EC50 ([14]; curve inflection point): 95.7 µM
